# Columns and labels:
# [1] = molecular target: T1, D(2) dopamine receptor (Homo sapiens, UniProt P14416); assay: Antagonist activity against human D2 receptor expressed in CHO cells assessed as dopamine EC50 at 200 nM by [35S]GTPgammaS binding assay (Rvb = 225 +/- 45 nM)
# [2] = molecular target: T1, D(2) dopamine receptor; assay: Antagonist activity against human D2 receptor expressed in CHO cells assessed as dopamine EC50 at 1 uM by [35S]GTPgammaS binding assay (Rvb = 225 +/- 45 nM)
# T1 sequence (P14416 whole entry): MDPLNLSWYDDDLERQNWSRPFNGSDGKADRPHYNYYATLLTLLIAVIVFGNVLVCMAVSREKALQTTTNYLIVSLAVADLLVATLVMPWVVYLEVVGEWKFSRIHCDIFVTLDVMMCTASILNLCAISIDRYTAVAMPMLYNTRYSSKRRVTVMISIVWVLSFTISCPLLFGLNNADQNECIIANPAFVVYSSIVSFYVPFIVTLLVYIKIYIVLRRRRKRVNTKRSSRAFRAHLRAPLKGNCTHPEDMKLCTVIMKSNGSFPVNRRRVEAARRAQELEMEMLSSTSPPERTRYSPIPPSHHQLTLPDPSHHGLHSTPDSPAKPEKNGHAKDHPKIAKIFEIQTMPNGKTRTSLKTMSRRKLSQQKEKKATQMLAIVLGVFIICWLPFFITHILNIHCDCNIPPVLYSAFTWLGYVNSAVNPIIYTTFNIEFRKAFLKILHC
compound,measurement,setting,value
CCCN1CCC[C@@H](c2cccc(O)c2)C1 [Preclamol],EC50,[1],376 nM
same,EC50,[2],844 nM

# Source: BindingDB's records for doi:10.1021/acs.jmedchem.5b01031 (Wayne State University, 2015)
